Experimental data: the supplement of paper PMC10331698
± gives the standard deviation of the averaged measurements.

Tests used:
Test in all cases: level (log10 ratio to DMSO vehicle control); higher = higher biomarker level / cell amount than vehicle control
Methotrexate = compound: CN(Cc1cnc2nc(N)nc(N)c2n1)c1ccc(C(=O)N[C@@H](CCC(=O)O)C(=O)O)cc1 [Methotrexate]; conditions: in DMSO
Protocol: (§1)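 BioMAP Diversity Plus panel of 12 human primary cell co-culture systems (3C, 4H, LPS, SAg, BT, BF4T, BE3C, CASM3C, HDF3CGF, KF3CT, MyoF, Mphg). Compounds were added 1 h before stimulation and left for 24 h (MyoF 48 h; BT 72 h for soluble read-outs or 6 d for IgG). Biomarkers were read by ELISA, cytotoxicity by SRB, PBMC viability and proliferation by Alamar Blue. Each well value was divided by the mean of 8 DMSO control wells on the same plate and log10 transformed; duplicate blinded samples were tested at 4 concentrations.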

[1] = compound: FC(F)(I)C(F)(F)C(F)(F)C(F)(F)C(F)(F)C(F)(F)I [1,6-Diiodoperfluorohexane]; conditions: 6700 nM; in DMSO
Protocol: as §1

[2] = compound: O=C(Cl)C(F)(F)C(F)(F)C(F)(F)C(=O)Cl [Hexafluoroglutaryl chloride]; conditions: in DMSO
Protocol: as §1

Tetrafluorosuccinic acid = compound: O=C(O)C(F)(F)C(F)(F)C(=O)O [Tetrafluorosuccinic acid]; conditions: in DMSO
Protocol: as §1

[3] = compound: O=S(=O)(O)CCC(F)(F)C(F)(F)C(F)(F)C(F)(F)F [4:2 Fluorotelomer sulfonic acid]; conditions: in DMSO
Protocol: as §1

Perfluoropinacol = compound: OC(C(F)(F)F)(C(F)(F)F)C(O)(C(F)(F)F)C(F)(F)F [Perfluoropinacol]; conditions: in DMSO
Protocol: as §1

[4] = compound: OCC(F)(F)C(F)(F)C(F)(F)C(F)(F)C(F)(F)C(F)(F)F [6:1 Fluorotelomer alcohol]; conditions: in DMSO
Protocol: as §1

| Test System | level (log10) (Methotrexate; 1500 nM) | level (log10) (Methotrexate; 4400 nM) | level (log10) (Methotrexate; 13000 nM) | level (log10) (Methotrexate; 40000 nM) | level (log10) [1] | level (log10) ([2]; 6700 nM) | level (log10) ([2]; 20000 nM) | level (log10) ([2]; 60000 nM) | level (log10) (Tetrafluorosuccinic acid; 6700 nM) | level (log10) (Tetrafluorosuccinic acid; 20000 nM) | level (log10) (Tetrafluorosuccinic acid; 60000 nM) | level (log10) ([3]; 6700 nM) | level (log10) ([3]; 20000 nM) | level (log10) ([3]; 60000 nM) | level (log10) (Perfluoropinacol; 6700 nM) | level (log10) (Perfluoropinacol; 20000 nM) | level (log10) ([4]; 6700 nM) | level (log10) ([4]; 20000 nM) | level (log10) ([4]; 60000 nM) |
| --- | --- | --- | --- | --- | --- | --- | --- | --- | --- | --- | --- | --- | --- | --- | --- | --- | --- | --- | --- |
| KF3CT:CD54/ICAM-1 | -0.0085 ± 0.012 | -0.011 ± 0.0014 | 0.006 ± 0.0071 | 0.007 ± 0.0042 | -0.038 | -0.013 ± 0.0014 | -0.002 ± 0.0057 | -0.002 ± 0.0028 | 0.011 ± 0.0085 | 0.003 | 0.025 ± 0.0042 | -0.006 ± 0.0085 | -0.0125 ± 0.0092 | -0.0125 ± 0.0078 | 0.012 ± 0.0099 | 0.0185 ± 0.015 | 0.001 ± 0.0014 | -0.005 ± 0.0071 | 0.016 ± 0.013 |
| KF3CT:CXCL8/IL-8 | 0.002 ± 0.017 | 0 ± 0.021 | -0.0085 ± 0.023 | 0.014 ± 0.011 | -0.071 | -0.0215 ± 0.013 | -0.0275 ± 0.035 | -0.0085 ± 0.0092 | -0.029 ± 0.011 | -0.031 ± 0.0042 | -0.0175 ± 0.026 | -0.0095 ± 0.0078 | -0.024 ± 0.018 | -0.023 ± 0.025 | -0.018 ± 0.011 | -0.005 ± 0.0042 | -0.0005 ± 0.025 | -0.0045 ± 0.023 | 0.0025 ± 0.015 |
| KF3CT:CXCL9/MIG | 0.001 ± 0.0028 | 0.002 ± 0.016 | -0.0005 ± 0.0021 | 0.001 ± 0.0014 | -0.088 | 0.0025 ± 0.011 | 0.0085 ± 0.011 | 0.008 ± 0.0085 | -0.011 ± 0.014 | -0.011 ± 0.0099 | -0.017 ± 0.0014 | 0.0005 ± 0.0021 | 0.004 ± 0.016 | 0.0105 ± 0.016 | 0.002 ± 0.0028 | -0.004 ± 0.0071 | -0.0025 ± 0.019 | -0.003 ± 0.016 | 0.0025 ± 0.0021 |
| KF3CT:CXCL10/IP-10 | 0.0025 ± 0.018 | 0.0015 ± 0.011 | 0.004 ± 0.011 | -0.0005 ± 0.021 | -0.005 | -0.0105 ± 0.013 | 0.0045 ± 0.0035 | -0.0025 ± 0.015 | -0.006 ± 0.0028 | -0.0055 ± 0.0064 | -0.0075 ± 0.00071 | -0.007 ± 0.0028 | -0.0145 ± 0.011 | -0.0115 ± 0.0092 | 0.0025 ± 0.0035 | -0.0205 ± 0.0064 | 0.0155 ± 0.0035 | 0.0055 ± 0.015 | 0.011 |
| KF3CT:IL-1alpha | -0.0145 ± 0.013 | -0.0225 ± 0.032 | -0.002 ± 0.052 | -0.0145 ± 0.039 | -0.073 | -0.0085 ± 0.0078 | 0.0095 ± 0.013 | -0.012 ± 0.018 | -0.012 ± 0.0042 | -0.0385 ± 0.019 | 0.007 ± 0.023 | -0.0155 ± 0.0021 | -0.0355 ± 0.0078 | -0.021 ± 0.021 | 0.0765 ± 0.028 | 0.155 ± 0.032 | -0.005 ± 0.02 | 0.0195 ± 0.021 | 0.007 ± 0.0071 |
| KF3CT:MMP-9 | 0.017 ± 0.013 | -0.001 ± 0.014 | -0.0045 ± 0.04 | 0.0075 ± 0.019 | -0.136 | -0.0515 ± 0.013 | -0.0255 ± 0.028 | -0.024 ± 0.03 | -0.0305 ± 0.018 | -0.024 ± 0.031 | -0.0085 ± 0.035 | 0.0075 ± 0.012 | -0.011 ± 0.037 | 0.023 ± 0.0057 | 0.01 ± 0.018 | -0.0245 ± 0.029 | -0.018 ± 0.0028 | -0.0315 ± 0.0021 | 0.002 ± 0.0028 |
| KF3CT:PAI-I | 0.006 ± 0.014 | -0.036 ± 0.031 | -0.0145 ± 0.025 | -0.007 ± 0.1 | -0.117 | -0.012 ± 0.028 | -0.0005 ± 0.0078 | -0.0055 ± 0.015 | -0.0465 ± 0.037 | -0.0005 ± 0.0021 | 0 ± 0.0014 | -0.005 ± 0.0071 | -0.015 ± 0.0014 | -0.0175 ± 0.0064 | 0.001 ± 0.0042 | -0.0435 ± 0.012 | -0.0005 ± 0.011 | -0.001 ± 0.011 | 0.008 ± 0.0099 |
